Experimental data taken from patent US20230295213A1, “CD73 INHIBITORS AND PHARMACEUTICAL USES THEREOF” (RISEN (SUZHOU) PHARMA TECH CO., LTD., priority 2018, published 2023).
Like-named read-outs stand apart in the source and are kept apart here.

Columns and labels:
CD73 = CD73 (Homo sapiens (Human), UniProt P21589); assay: CD73 cellular assay (T cell stimulation assay); type: cell-based; details: human T cells, anti-CD3/CD28 stimulated, AMP + EHNA, 72 hours
Experimental: Procedures for T cell stimulation assay were the following: Day 1, coating the plate: diluting anti-CD3 to 1 μg/mL with sterile PBS; coating 96 well flat bottom tissue culture plates (Corning #3599) with 50 uL of diluted anti-CD3, centrifuging (1000 rpm) for 1 min; sealing the plate and incubating the plate at 4° C. overnight for antibody crosslinking.
Day 2, human T cell seeding: (a) washing the coated plate (from Day 1) with sterilized PBS buffer (2×100 uL); (b) re-suspending T cells and adjusting cell density to 0.5×10^6 cells/mL with growth media (X-VIVO 15+1% Pen/strep+1% glutamine), and seeding 100 μL/well (50,000 cells/well) in 96-well plates; (c) diluting CD28 antibody for 8x working concentration (8 μg/mL) with growth media, giving 1 μg/mL of the final concentration, followed by addition of CD28 antibody (25 μL) to cell plate; incubating the plates under 5% CO2 at 37° C. for 60 min; (d) adding compound (25 μL, 8x dilution with growth media) to cell plate, and incubating the plates under 5% CO2 at 37° C. for 60 min; (e) adding AMP (25 μL) and EHNA (25 μL, 8x dilution with growth media) to cell plate; (f) incubating the plates under 5% CO2 at 37° C. for 72 hours.
Day 5, collecting cell growth media and testing cell proliferation: (a) centrifuging the cell plate (1,000 rpm) for 5 min; (b) harvesting 150 μL of the cell culture media from each well to 96 well plate, followed by measurement of IFN-r expression by ELISA test; (c) taking a portion of the cell culture supernatant for cytokine analysis, removing the remaining supernatant, followed by addition of fresh growth media (X-VIVO 15+1% Pen/strep+1% glutamine, 100 μL); (d) adding Celltiter-Glo solution (50 μL) into each well for the measurement of cell proliferation by: (e) incubating the plates at room temperature for 10 min on a shaker; (f) transferring 100 μL solution into 96-well white plate and taking the readout of the Celltiter-Glo data using a TECAN Reader.

[1] = biological target: Recombinant human 5′-nucleotidase (hCD73) (Homo sapiens (Human), UniProt P21589); assay: CD73 enzyme inhibition assay (hCD73, AMP substrate, PiColorLock Gold phosphate detection); type: biochemical; details: hCD73 1 nM solution, AMP 60 μM solution, 37° C. 20 min, absorbance 635 nm
Chain of Recombinant human 5′-nucleotidase (hCD73) (P21589 27-574): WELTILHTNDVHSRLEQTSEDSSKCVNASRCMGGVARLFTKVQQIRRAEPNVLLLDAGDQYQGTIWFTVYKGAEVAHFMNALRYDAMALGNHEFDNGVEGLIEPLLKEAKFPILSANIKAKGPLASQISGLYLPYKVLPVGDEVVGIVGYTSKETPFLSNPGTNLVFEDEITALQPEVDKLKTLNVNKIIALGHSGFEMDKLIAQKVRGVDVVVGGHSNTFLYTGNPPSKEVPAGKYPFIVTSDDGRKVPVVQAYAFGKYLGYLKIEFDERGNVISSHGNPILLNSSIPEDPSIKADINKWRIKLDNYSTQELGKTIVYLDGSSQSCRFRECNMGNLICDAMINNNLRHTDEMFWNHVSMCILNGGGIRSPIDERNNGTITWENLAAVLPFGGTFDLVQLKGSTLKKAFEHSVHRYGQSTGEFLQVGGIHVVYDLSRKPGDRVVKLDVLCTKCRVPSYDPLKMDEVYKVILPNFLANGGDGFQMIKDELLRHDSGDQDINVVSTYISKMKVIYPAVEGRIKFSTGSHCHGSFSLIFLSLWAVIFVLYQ
Experimental: Test compound solution preparation: Stock solution of a test compound was prepared in DMSO at 10 mM concentration. A series of preset 10-concentration solutions of a test compound were prepared by diluting the stock solution in 5-fold gradient dilution with DMSO.
Assay buffer (lx): 20 mm Tris, 25 mM NaCl, 1 mM MgCl2, pH 7.5, 0.005% Tween-20 (freshly prepared, and ready for use).
An aliquot of 0.25 μL of compound solution or DMSO (blank control) was added to each test well of a micro well plate. Recombinant human 5′-nucleotidase (hCD73) was diluted to 1 nM in assay buffer; and an aliquot of 25 μL hCD73 (1 nM) solution was added to the corresponding wells of the plate. The contents of the well were well-mixed, and the plate was covered with sealing film, centrifuged at 1000 rpm for 30 sec., followed by incubation at room temperature for 15 min. AMP, the substrate, was diluted to 60 μM concentration in the assay buffer. To each reaction well was added 25 μL of AMP solution. After mixing well, the plate was covered with sealing film, centrifuged at 1000 rpm for 30 sec., and incubated at 37° C. for 20 min. The absorbance signal (end point) was measured on SPARK plate reader at 635 nm (See PiColorLock™ Gold Phosphate Detection System (Abcam) test kit for reference).
The reaction wells containing CD73 enzyme, substrate AMP and DMSO (no compound) were used as positive control, and the reaction wells containing substrate AMP and DMSO but no CD73 enzyme were used as negative control. The percent (%) inhibition at each concentration of compound was calculated based on and relative to the signal in the High and Low control wells contained within each assay plate. The High control wells were considered as 0% inhibition, and the low control wells, which didn't contain any compound but rather DMSO (final concentration=0.5%), as 100% inhibition. IC50 values were obtained using GraphPad Prism software.

[2] = Pharmacokinetic evaluation in ICR mice, intravenous; type: in vivo; details: mouse; ICR male mice, 1.0 mg/kg intravenous, plasma
Experimental: A test compound (1.0 mg/kg) was administered to fasted ICR male mice via intravenous injection, and blood samples were collected at time points of 0.08, 0.25, 0.5, 1, 2, 4, 6, 8 and 24 h after the administration. Plasma sample was separated by centrifugation (8000 rpm) and stored at −80° C. until the sample was analyzed. Concentrations of the test compound in the plasma were determined by HPLC-MS/MS: the plasma was dispensed into appropriate tubes containing internal standard and methanol or acetonitrile. The tubes were mixed vigorously for 3 minutes to achieve deproteinization and then centrifuged at 8000 rpm for 5 minutes. The supernatant was transferred to an autosampler vial, injected into the chromatographic system, and quantified on MS/MS detector. Pharmacokinetic parameters including AUC0-t, Cmax, Tmax, t1/2, MRT, Cl and Vd were calculated using WinNonlin 6.3 software. Table 3 summarizes key PK parameters for test compounds (AUC(0-t): the area under the curve from time 0 to time t; AUC(0-∞): the area under the curve from time 0 to infinity; t1/2: Half-life; CL: clearance; C0: the concentration of drug in blood if the drug molecules enter the circulation and are distributed immediately (i.e., at time 0)).

[3] = read-out: EC50, CTG (CellTiter-Glo, cell proliferation)
[4] = read-out: EC50, IFN-γ (ELISA, indicator for T-cell activity)

Chain of CD73 (P21589 27-574): as above

| EC50 (CD73; [3]) | EC50 (CD73; [4]) | IC50 [1] | AUC(0-inf) [2] | AUC(0-t) [2] | Cmax [2] | half-life [2] | Compound |
| --- | --- | --- | --- | --- | --- | --- | --- |
| 3.13 nM | 1.45 nM | – | – | – | – | – | O=P(O)(O)CP(=O)(O)OC[C@H]1O[C@@H](n2cnc3c(N4CC5(CCc6ccccc65)C4)nc(Cl)nc32)C(O)C1O (stereo partly drawn) [d-1] |
| 4.07 nM | 2.53 nM | 1.76 nM | – | – | – | – | O=P(O)(O)CP(=O)(O)OC[C@H]1O[C@@H](n2cnc3c(N4CCC(c5ccccc5)(c5ccccc5)C4)nc(Cl)nc32)C(O)C1O (stereo partly drawn) [d-33] |
| – | – | 1.5 nM | 298 µg·h/mL | 108 µg·h/mL | 11600 ng/mL | 39.5 h | O=P(O)(O)CP(=O)(O)OC[C@H]1O[C@@H](n2cnc3c(N4CC5(CCCC5)c5ccccc54)nc(Cl)nc32)[C@@H](O)C1O (stereo partly drawn) [d-13] |
| 7.53 nM | 14.2 nM | – | – | – | – | – | O=P(O)(O)CP(=O)(O)OC[C@H]1O[C@@H](n2cnc3c(N4CCC5(CCCCC5)C4)nc(Cl)nc32)C(O)C1O (stereo partly drawn) [Compound b, reference compound] |
